For data set [1] the following is noted: in vivo; cited from earlier work.
The target of a further data set is Aβ peptide (Homo sapiens, UniProt P05067). Put plainly: Western blot of aggregated Aβ peptide / Aβ monomer. Type of data set: biochemical. The conditions noted are these: 100 nM, 10 nM, 1 nM THC; FIGS. 4A, 4B. The protocol: FIG. 4A is a western blot showing aggregated Aβ peptide with and without THC treatment.
FIG. 4B is a graph showing the relative quantity of Aβ monomer in the anti-aggregation study described in FIG. 4A. Cells were untreated for the aggregation control or treated with and 100 nM THC, 10 nM THC, and 1 nM THC.
In untreated samples, Aβ peptide increased in intensity for the first 20 minutes, followed by a plateauing of fluorescence at around 30 minutes, at which time the intensity remained constant for the duration of the study. […] Therefore, THC's direct interaction with the Aβ peptide will not dampen an immune response to clear the Aβ peptide. Further analysis with western blot was performed measuring the anti-aggregation properties of THC with Aβ peptide.
(In general: In western blotting, separated proteins are transferred to a membrane and probed.)

The next data set relates to phosphorylated GSK-3β. The experiment in a line: Western blot of phosphorylated GSK-3β in N2a/AβPPswe cells. Type of data set: cell-based. To be noted: 25 nM, 2.5 nM, 0.25 nM THC; 36 hours; FIGS. 5D, 10B.
Data set [2] addresses acetylcholinesterase (AChE) (Homo sapiens, UniProt P22303). To be noted: THC 50 μM; cited from earlier work.
Data set [3] relates to Aβ40 in N2a/AβPPswe cells. Put plainly: Aβ40 ELISA after one or two THC administrations 24 hours apart. Type of data set: cell-based, human. To be noted: FIG. 9B. The protocol:
Studies were conducted on multiple dosings of THC. N2a/AβPPswe cells, as discussed in Example 1, were suspended to 2×10^5/mL, 3 mL plated into each well, and grown in DMEM with 10% fetal bovine serum, 100 U/mL penicillin, 100 μg/mL streptomycin, and 400 μg/mL G418 (Invitrogen), at 37° C. in the presence of 5% CO2. N2a/AβPPswe cells were subcultured using trypsin, and pipetted numerous times to ensure cells were separated into individual cells. Cells were counted, as provided in Example 1, and proper amount of cell medium and fresh medium was added into new flasks according to the ratio of dilution. Pipetting was performed 10 times to homogenize cells, and 3 mL of cells were seeded into medium into each 6 well plate. When one pipette was used up, the cells were mixed in the flask before using them for the next pipette. Compounds were suspended in DMSO, as provided in Example 1.
12 hours after plating, cells were treated with various concentrations of Δ9-THC (T4764-1ML Sigma Aldrich, Merck KGaA; Darmstadt, Germany), with untreated N2a/AβPPswe cells used as a control. Multiple dosing regimens were carried out 24 hours after initial treatment. Treatment was then washed out, i.e. the medium was then removed from the cultures and 3 mL of media containing the treatment compounds were added. […]
(An ELISA detects its analyte on a solid surface through an enzyme-linked reagent.)

For data set [4], the system named is Aβ40 in N2a/AβPPswe cells. Put plainly: Aβ40 ELISA of N2a/AβPPswe cells treated with THC or caffeine. Type of data set: cell-based, human. The conditions noted are these: for Aβ40 levels versus control: THC 0.25-2500 nM or caffeine 0.625-10 μM; for Percentage of decreased Aβ40: THC 2.5 μg/mL compared with the control; for Aβ40 (pg/mL) in THC-treated cells: THC 2.5 μg/mL, N2a/AβPPswe cells.

Another data set has as its system brain energy metabolism. To be noted: repeated high doses of THC (10 mg/kg body weight); rat brains; cited from earlier work.
The next data set relates to Tau. Put plainly: Western blot of Tau in N2a/AβPPswe cells. Type of data set: cell-based. The protocol:
(§1) FIG. 6C is a western blot assay showing Tau and phosphorylated Tau (pTau) levels in N2a/AβPPswe treated with 25 nM THC, 2.5 nM THC, or 0.25 nM THC. Anti-Tau, anti-pTau and β-actin antibodies were used to detect Tau and pTau, and β-actin that served as the protein loading control.
(§2) FIG. 11C is a western blot assay showing Tau and phosphorylated Tau levels in N2a/AβPPswe treated as follows: untreated (CTRL, control), or 10^−5 M Melatonin with 2.5 nM THC, 10^−6 M Melatonin with 2.5 nM THC. Anti-Tau and anti-pTau antibodies were used to […] that served as the protein loading control.
(§3) Amyloid processing and ancillary amyloid protein effects were next tested. After stripping the Western, and restaining for AβPP, using anti-Tau (Chuanhai Cao, Tampa, Fla.), anti-pTau (Chuanhai Cao, Tampa, Fla.), and anti-β-actin antibodies (Cat #A54441, Sigma Aldrich, Merck KGaA; Darmstadt, Germany)) were used to detect Tau levels against a protein loading control (β-actin). After data was collected the membrane was stripped using a western blot striping buffer (Cat #21059, Thermo Fisher Scientific, Waltham, Mass.) and stained for AβPP using 6E10 antibody (Cat #803002, BioLegend, Inc., San Diego, Calif.). Anti-mouse secondary horseradish peroxidase (Cat #A9044, Sigma Aldrich, Merck KGaA; Darmstadt, Germany) secondary antibodies were used.

In data set [5] the test system is phosphorylated Tau (pTau). The experiment in a line: Western blot of phosphorylated Tau in N2a/AβPPswe cells. Type of data set: cell-based. The protocol:
as §1, §2, §3

Consider one compound from patent US11446276B2, “Extreme low dose THC as a therapeutic and prophylactic agent for Alzheimer's disease” (University of South Florida, priority 2015, dated 2022).

Structures are written as SMILES. “Also recorded” adds a separate entry of the source.

Chain of Aβ peptide (P05067 672-711 limits assumed): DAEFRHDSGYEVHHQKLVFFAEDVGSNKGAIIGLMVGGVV
Chain of acetylcholinesterase (AChE) (P22303 32-614): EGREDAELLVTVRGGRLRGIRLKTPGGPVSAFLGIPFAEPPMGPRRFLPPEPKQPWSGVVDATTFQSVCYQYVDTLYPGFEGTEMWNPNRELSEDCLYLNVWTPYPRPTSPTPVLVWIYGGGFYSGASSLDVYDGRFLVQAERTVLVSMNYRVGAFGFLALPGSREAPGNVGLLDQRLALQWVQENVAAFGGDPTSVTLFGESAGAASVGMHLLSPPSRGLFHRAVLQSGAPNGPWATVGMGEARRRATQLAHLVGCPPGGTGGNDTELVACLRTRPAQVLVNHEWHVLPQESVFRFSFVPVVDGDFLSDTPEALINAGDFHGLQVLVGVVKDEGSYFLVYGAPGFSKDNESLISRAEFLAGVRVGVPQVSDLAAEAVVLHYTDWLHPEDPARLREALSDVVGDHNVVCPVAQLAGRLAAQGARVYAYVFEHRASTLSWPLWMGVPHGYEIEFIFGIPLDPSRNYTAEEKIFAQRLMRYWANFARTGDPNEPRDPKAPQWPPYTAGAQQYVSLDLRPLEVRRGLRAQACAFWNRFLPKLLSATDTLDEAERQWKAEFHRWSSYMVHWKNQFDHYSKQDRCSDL
Experimental for phosphorylated GSK-3β: Cells were plated in 6 well plate overnight with 25 nM THC, 2.5 nM THC, or 0.25 nM THC added into each designated wells in duplicate. Cells were lysed after 36 hours incubation. Proteins were loaded onto SDS-page gel and then blotted with each antibody after transfer onto PVDF membrane.
Using 12% Tris-Glycine gel system (Bio-rad), proteins were separated by electrophoresis and semi-dry transferred to a PVDF membrane. GSK-3β and β-actin antibodies were used as primary antibody. After adding secondary antibody, the membranes were exposed using ECL substrate (Pierce). After membrane was developed, film with bands were scanned, followed by analysis of gel-quantification software (QuantityOne, from Biorad).

As to `CCCCCc1cc(O)c2c(c1)OC(C)(C)[C@@H]1CCC(C)=C[C@@H]21` [THC, Δ9-tetrahydrocannabinol], the Bioavailability in [1] is listed as 30%. The “Relative quantity of Aβ monomer” value on Aβ peptide was “increases monomeric Aβ; also recorded: higher relative % of Aβ monomer”. Besides, in the data set with phosphorylated GSK-3β, the “Phosphorylated GSK-3β, THC alone” value is “decreases the phosphorylation of GSK-3β; also recorded: decrease of phosphorylated GSK-3β; also recorded: decreases phosphorylated GSK-3β”. Further, the “Inhibition of AChE” value in data set [2] is “competitively inhibits”. Moreover, in data set [3] (designated concentrations of THC), the “Aβ40 (pg/ml) concentrations after one or two administrations” value is reported as “decreases Aβ40”. For the same compound, the “Aβ40 in cells treated twice with THC 24 hours apart versus once” value in data set [3] (from 12 μM and higher concentrations) is given as “significant decrease in Aβ40 concentration compared to cells treated once; also recorded: even greater reduction in Aβ levels”. In addition, in data set [4] (6 hours, THC 0.25 nM), the “Aβ levels at the lowest dose” value is given as “minor increase”. Also, the “Aβ40 levels versus control” value in data set [4] (6 hours, FIG. 1A) is reported as “dose-dependent decrease; also recorded: significant reduction”; in [4] (24 hours, FIG. 1B), “dose-dependent decrease; also recorded: exponential drop”; in data set [4] (48 hours, FIG. 1C), “dose-dependent decrease; also recorded: significantly differed more”. Also, the “Percentage of decreased Aβ40” value in [4] (6 hr) was found to be 9.23%; in data set [4] (24 hr) it was 31.19%; in [4] (48 hr), 51.24%. The “Aβ40 (pg/mL) in THC-treated cells” value in data set [4] (6 hr) is reported as 965.827 pg/mL; in data set [4] (24 hr) it was 3648.975 pg/mL; in data set [4] (48 hr), 2894.175 pg/mL. Moreover, the Brain energy metabolism entry in the data set with brain energy metabolism is on record as “dampen the brain energy metabolism”. Besides, the “Tau level among THC concentrations” value in the data set with Tau (2.5 nM THC, FIGS. 6C, 7) was “lowest level of Tau”. Besides, in the data set with Tau (25 nM, 2.5 nM, 0.25 nM THC, FIG. 7), the “Tau protein levels (standardized to β-actin), THC alone” value was “lowers the production of Tau; also recorded: reduces Tau protein levels”. For the same compound, in [5] (2.5 nM THC, FIG. 8), the “Ratio of pTau:Tau among THC concentrations” value is on record as “peak of pTau:Tau ratio”. In addition, the “Phosphorylated Tau levels, THC alone” value in data set [5] (25 nM, 2.5 nM, 0.25 nM THC, FIGS. 6C, 6D) was “reduction by THC in a dose-dependent manner; also recorded: lowers the phosphorylation of tau in a dose dependent manner; also recorded: decreases phosphorylated Tau”. The “Ratio of phosphorylated Tau to Tau, THC alone” value in data set [5] (25 nM, 2.5 nM, 0.25 nM THC, FIGS. 8, 13) is given as “increase the ratio of pTau:Tau; also recorded: increase in phosphorylated Tau; also recorded: increases phosphorylated Tau”.
